Common to all, as to type: physicochemical
Data set [1] can be described thus: Hygroscopicity experiment (crystal forms of salts and crystal form A of free base). The source says:
• 2.1 Experimental objective: The hygroscopicity of different crystal forms of salts of the compound was investigated under various relative humidity conditions to provide a basis for screening and storage of the crystal forms of salts of the compound. • 2.2 Experimental scheme: The crystal forms of salts of the compound were placed in saturated water vapor at different relative humidities to reach a dynamic equilibrium between the compound and the water vapor.
3.1 Experimental objective: The hygroscopicity of crystal form A of free base of the compound was investigated under various relative humidity conditions to provide a basis for screening and storage of the crystal forms of the compound.
3.2 Experimental scheme: The crystal form A of free base of the compound was placed in saturated water vapor at different relative humidities to reach a dynamic equilibrium between the compound and the water vapor. The percentage weight gain of the compound due to moisture absorption was calculated after the equilibrium.

Data set [2] in a line: Stability experiment of solid crystal form A of free base. To be noted: 60°C; room temperature, 92.5% RH; 50°C, RH = 75%; 5, 10, 20 and 30 days. How it is done:
2.1 Experimental objective: To investigate the physical and chemical stability for crystal form A of free base under the conditions of a high temperature of 60°C, room temperature and a high humidity of 92.5% RH and 50°C, RH = 75% for 5, 10, 20 and 30 days and provide a basis for the storage of the compound.
2.2 Experimental scheme: About 2 mg of crystal form A of free base was taken and investigated under the conditions of 60°C in an oven, room temperature and a high humidity of RH = 92.5%, and 50°C, RH = 75% for 5, 10, 20 and 30 days. The content was determined by HPLC and an external standard method, and the changes of related substances were calculated by a chromatographic peak area normalization method (see 1.2.3 for the chromatographic conditions).

Data set [3] is described as follows: Solubility experiments in different media, crystal form A of free base. To be noted: thermodynamic from solid. How it is done: 4.1 Experimental objective: The solubility of the crystal form A of free base in media such as pH1 buffer, artificial simulated gastric fluid (FaSSGF), fasted-state artificial simulated intestinal fluid (FaSSIF), and fed-state artificial simulated intestinal fluid (FeSSIF) was tested to provide a basis for the evaluation of the potential of the crystal form being manufactured as a drug.
4.2 Experimental scheme: About 1.0 mg of crystal form A of free base was weighed into 2 mL glass vials, and pH1 buffer solution, fasted-state artificial simulated intestinal fluid (FaSSIF), fed-state artificial simulated intestinal fluid (FeSSIF), and fasted-state simulated gastric fluid (FaSSGF) (1 mL for each medium) were added to each vial, respectively. The vials were placed on a micromixer for shaking overnight with the temperature set at 37°C. After 24 h, the sample solutions were filtered through 0.45 µm nylon filter membranes, and the filtrates were collected. The concentrations were determined by an external standard method and HPLC.

Converted amounts (≈) assume the structure as drawn.

Turning to `CC(C)c1c(F)cc(N2C[C@H](N(C)S(C)(=O)=O)[C@H]2C)c2cnc(Nc3ccnc(-c4cn(C)nc4Cl)n3)cc12` [crystal form A of free base, N-((2R,3S)-1-(3-((2-(3-chloro-1-methyl-1H-pyrazol-4-yl)pyrimidin-4-yl)amino)-6-fluoro-5-isopropylisoquinolin-8-yl)-2-methylazetidin-3-yl)-N-methylmethanesulphonamide], the “weight gain after moisture absorption” value in data set [1] (RH 80%) was “about 0.1719%”. Besides, the hygroscopicity result in data set [1] (RH 80%, result in words) was “weak hygroscopicity”. For the same molecule, in data set [1] (after 1 cycle of moisture absorption and desorption, 0-95% relative humidity), the “crystal form transformation (XRPD pattern)” value is “no crystal form transformation occurred”. In addition, the stability result in data set [2] is on record as “excellent stability”. In addition, the solubility at 24 h is 8 µg/mL (≈ 14 µM) in data set [3] (fassgf or other biorelevant, FaSSGF (simulated gastric fluid, fasted), 37°C); 558 µg/mL (≈ 974 µM) in data set [3] (pH1 buffer, simulated gastric fluid, pH 1, 37°C); 10 µg/mL (≈ 17.4 µM) in data set [3] (FaSSIF (simulated intestinal fluid, fasted), 37°C); 209 µg/mL (≈ 365 µM) in data set [3] (FeSSIF (simulated intestinal fluid, fed), 37°C).

What is called solubility is how much of the substance goes into solution per volume. Low values mean little dissolved substance, high ones much dissolved substance.
